Assay results published in US20250313546A1, “NUCLEIC ACID BINDERS” (UNIVERSITY OF STRATHCLYDE, priority 2022, published 2025).
≈ marks a conversion by molar mass, not a printed value. Like-named read-outs stand apart in the source and are kept apart here.

Columns and labels:
[1] = tested on: Staphylococcus aureus (ATCC 43300); assay: Antibacterial MIC, broth microdilution (CLSI); format: cell-based; settings: for MIC80: Staphylococcus aureus, ATCC43300, read-out: MIC80 S. aureus; for S. aureus Selectivity Indices, Group / S. aureus Selectivity Index (SI): SI, IC50 (μM)/MIC80 (μM), HEK293 cytotoxicity; for S. aureus Selectivity Index (SI): numeric value
[2] = tested on: Enterococcus faecalis (ATCC 51299); assay: Antibacterial MIC, broth microdilution (CLSI); format: cell-based; settings: for MIC80: Enterococcus faecalis, ATCC51299, read-out: MIC80 E. faecalis; for E. faecalis Selectivity Indices, Group / E. faecalis Selectivity Index (SI): SI, IC50 (μM)/MIC80 (μM), HEK293 cytotoxicity; for E. faecalis Selectivity Index (SI): numeric value
[3] = tested on: Escherichia coli (ATCC 25922); assay: Antibacterial MIC, broth microdilution (CLSI); format: cell-based; settings: Escherichia coli, ATCC25922; read-out: MIC80 E. coli
[4] = tested on: Genomic double stranded DNA (salmon); assay: Fluorescence intercalator displacement (FID) assay, SYBR-safe probe; settings: 20 μM compound, 30° C., lower % = stronger binding
Procedure, shortened: (§1)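 Compound at 20 μM mixed with 3.76 ng/mL polyAU dsRNA or salmon genomic dsDNA and 12500-fold diluted SybrSafe in 1 mM phosphate buffer pH 7.4, then heated to 30 °C and fluorescence read. Reduction is expressed as normalised %, with nucleic acid plus probe as maximum and probe alone as minimum.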

[5] = tested on: PolyAU double stranded RNA; assay: as above; settings: 20 μM compound, 30° C., lower % = stronger binding
Procedure, shortened: as §1

T. equiperdum = assay: Resazurin-based (Alamar blue) drug sensitivity assay; settings: Trypanosoma equiperdum, read-out: IC50 T. equiperdum
T. evansi AntTat 3/3 = assay: as above; settings: read-out: IC50 T. evansi
Method: A detailed description of the procedure for evaluating activity against trypanosomes, using an Alamar Blue (resazurin) assay, is described below.
The bloodstream form (BSF) T. b. brucei s427 (see De Koning, H. P. et al., Mol. Biochem. Parasitol. 2000, 106, 181-185), T. evansi AntTat 3/3 (see Dean, S. et al., Proc. Natl. Acad. Sci. USA, 2013, 110, 14741-14746), and T. equiperdum (see Stewart, M. L. et al., Eukaryot. Cell, 2010, 9, 336-343) were cultured in HMI-9 medium (Life Technologies, Paisley, United Kingdom) supplemented with 10% heat inactivated Foetal Bovine Serum (FBS (PAA Laboratories Linz, Austria)), 14 μL/L β-mercaptoethanol (BDH, Dorset, UK), and 3.0 g/L NaHCO3 (Sigma-Aldrich) and adjusted to pH 7.4. These cell lines were maintained at 37° C. in a humidified, 5% CO2 environment.
A resazurin-based (Alamar blue) drug sensitivity assay was used to assess and compare the activity of standard trypanocides in the different cell lines investigated (see Gould, M. K. et al., Anal. Biochem., 2008, 382, 87-93). Briefly, 23 doubling dilutions of the test compound of the invention, starting at 100 μM, and a compound-free control were prepared in 100 μL medium in a 96-well white plate (Greiner Bio-one, Frickenhausen, Germany). The cells were adjusted to 2×10^4 cells/mL for T. b. brucei and T. equiperdum; 4×10^4 cells/mL for T. evansi; and 5×10^5 cells/mL for T. congolense in the appropriate medium. 100 μL of the adjusted cells was then added to the wells containing drug dilutions and incubated for 48 h under respective culture condition. Thereafter, 20 μL of 125 mg/mL resazurin sodium dye was added, and the plate was incubated for a further 24 h.

T. vaginalis = assay: Trichomonas resorufin assay; format: cell-based; settings: for IC50: Trichomonas vaginalis, read-out: IC50 T. vaginalis; for T. vaginalis Selectivity Indices, Group: SI, IC50 (μM)/IC50 (μM), HEK293 cytotoxicity
C. neoformans (F10025) = settings: Cryptococcus neoformans, read-out: MIC99 C. neoformans
[6] = tested on: A. fumigatus A1160 (MFIG001); settings: Aspergillus fumigatus, read-out: MIC99 A. fumigatus A1160
[7] = tested on: Rhizopus arrhizus (NEQAS12.35321); settings: read-out: MIC99 Rhizopus arrhizus
Candida auris (H.17.157) = settings: for MIC99: Candidozyma auris, read-out: MIC99 Candida auris; for C. auris Selectivity Indices, Group: SI, IC50 (μM)/MIC99 (μg/mL), HEK293 cytotoxicity, Alkyl Amidines and NH Pyrroles
[8] = tested on: Candida glabrata (ACPF3309); settings: for MIC99: Nakaseomyces glabratus, read-out: MIC99 Candida glabrata; for C. glabrata Selectivity Indices, Group: SI, IC50 (μM)/MIC99 (μg/mL), HEK293 cytotoxicity, Alkyl Amidines and NH Pyrroles
[9] = tested on: SARS-CoV-2 (hCoV-19/Australia/VIC01/2020); assay: SARS-CoV-2 microplaque inhibition assay in Vero-E6 cells; format: cell-based; settings: for SARS-CoV-2 Selectivity Indices, Group: SI, IC50 (μM)/IC50 (μM), HEK293 cytotoxicity, Alkyl Amidines and NH Pyrroles

SMILES	MIC80 [1]	MIC80 [2]	MIC80 [3]	% Normalised Fluorescence with gDNA [4]	% Normalised Fluorescence with polyAU RNA [5]	IC50 (T. equiperdum)	IC50 (T. evansi AntTat 3/3)	S. aureus Selectivity Indices, Group ([1]; Alkyl Amidines and NH Pyrroles)	E. faecalis Selectivity Indices, Group ([2]; Alkyl Amidines and NH Pyrroles)	T. vaginalis Selectivity Indices, Group (T. vaginalis; Alkyl Amidines and NH Pyrroles)	SARS-CoV-2 Selectivity Indices, Group [9]	C. glabrata Selectivity Indices, Group [8]	also measured
Cn1cc(NC(=O)c2ccc(/C=C/c3ccc4nonc4c3)cc2)cc1C(=O)Nc1c[nH]c(C(=O)NCCN2CCOCC2)c1 [IIIb1, (E)-4-(4-(2-(benzo[c][1,2,5]oxadiazol-5-yl)vinyl)benzamido)-1-methyl-N-(5-((2-morpholinoethyl)carbamoyl)-1H-pyrrol-3-yl)-1H-pyrrole-2-carboxamide]	5 to 25 µM (≈ 3.04 to 15.2 µg/mL)	> 100 µM	> 100 µM	47%	30%	10 to 100 nM	10 to 100 nM						
O=C(Nc1c[nH]c(C(=O)Nc2c[nH]c(C(=O)NCCN3CCOCC3)c2)c1)c1ccc(/C=C/c2ccc3nonc3c2)cc1 [IIIb6, (E)-4-(4-(2-(benzo[c][1,2,5]oxadiazol-5-yl)vinyl)benzamido)-N-(5-((2-morpholinoethyl)carbamoyl)-1H-pyrrol-3-yl)-1H-pyrrole-2-carboxamide]	25 to 100 µM (≈ 14.9 to 59.5 µg/mL)	> 100 µM	> 100 µM	84%	53%	10 to 100 nM	100 to 1000 nM						
Cn1cc(NC(=O)c2cc(NC(=O)c3ccc(/C=C/c4ccc5nonc5c4)cc3)c[nH]2)cc1C(=O)NCCN1CCOCC1 [IIIb9, (E)-4-(4-(4-(2-(benzo[c][1,2,5]oxadiazol-5-yl)vinyl)benzamido)-1H-pyrrole-2-carboxamido)-1-methyl-N-(2-morpholinoethyl)-1H-pyrrole-2-carboxamide]	5 to 25 µM (≈ 3.04 to 15.2 µg/mL)	5 to 25 µM (≈ 3.04 to 15.2 µg/mL)	> 100 µM	55%	30%	10 to 100 nM	100 to 1000 nM						
Cn1cc(NC(=O)c2cc(NC(=O)c3ccc(/C=C/c4cnc5ccccc5c4)cc3)cn2C)cc1C(N)=O [IVa1, (E)-N-(5-carbamoyl-1-methyl-1H-pyrrol-3-yl)-1-methyl-4-(4-(2-(quinolin-3-yl)vinyl)benzamido)-1H-pyrrole-2-carboxamide]	< 5 µM	< 5 µM	> 100 µM	41%	65%	100 to 1000 nM	100 to 1000 nM						S. aureus Selectivity Indices, Group ([1]; Amides): B (Group B: 1.4 < SI <= 3); E. faecalis Selectivity Indices, Group ([2]; Amides): C (Group: C, 1.5 < SI <= 5); E. faecalis Selectivity Index (SI) [2]: 3
CNC(=O)c1cc(NC(=O)c2cc(NC(=O)c3ccc(/C=C/c4cnc5ccccc5c4)cc3)cn2C)cn1C [IVa2, (E)-N,1-dimethyl-4-(1-methyl-4-(4-(2-(quinolin-3-yl)vinyl)benzamido)-1H-pyrrole-2-carboxamido)-1H-pyrrole-2-carboxamide]	< 5 µM	< 5 µM	> 100 µM	29%	73%	100 to 1000 nM	100 to 1000 nM						S. aureus Selectivity Indices, Group ([1]; Amides): C (Group C: SI > 3); S. aureus Selectivity Index (SI) [1]: 4; E. faecalis Selectivity Indices, Group ([2]; Amides): D (Group D: SI > 5); E. faecalis Selectivity Index (SI) [2]: 10
Cn1cc(NC(=O)c2cc(NC(=O)c3ccc(/C=C/c4cnc5ccccc5c4)cc3)cn2C)cc1C(=O)NCCC1CCCCC1 [IVa3, (E)-N-(2-cyclohexylethyl)-1-methyl-4-(1-methyl-4-(4-(2-(quinolin-3-yl)vinyl)benzamido)-1H-pyrrole-2-carboxamido)-1H-pyrrole-2-carboxamide]	25 to 100 µM (≈ 15.7 to 62.9 µg/mL)	> 100 µM	> 100 µM			100 to 1000 nM	100 to 1000 nM						
Cn1cc(NC(=O)c2cc(NC(=O)c3ccc(/C=C/c4cnc5ccccc5c4)cc3)cn2C)cc1C(=O)NCCC(=N)N1CCCCC1 [Ib1, (E)-N-(3-imino-3-(piperidin-1-yl)propyl)-1-methyl-4-(1-methyl-4-(4-(2-(quinolin-3-yl)vinyl)benzamido)-1H-pyrrole-2-carboxamido)-1H-pyrrole-2-carboxamide]	< 5 µM	< 5 µM	> 100 µM	23%	12%			D (D: SI > 10)					S. aureus Selectivity Index (SI) [1]: 11; IC50 (T. vaginalis; resorufin assay): 1000 to 5000 nM; MIC99 (C. neoformans (F10025)): 5 to 25 µg/mL (≈ 7.61 to 38.1 µM); MIC99 [6]: 5 to 25 µg/mL (≈ 7.61 to 38.1 µM); MIC99 [7]: 25 to 50 µg/mL (≈ 38.1 to 76.1 µM); MIC99 (Candida auris (H.17.157)): > 50 µg/mL; MIC99 [8]: < 5 µg/mL
[H]/N=C(\CCNC(=O)c1cc(NC(=O)c2cc(NC(=O)c3ccc(C=Cc4ccc5nonc5c4)cc3)cn2C)cn1C)N1CCCCC1 [Ib2, (E)-4-(4-(2-(benzo[c][1,2,5]oxadiazol-5-yl)vinyl)benzamido)-N-(5-((3-imino-3-(piperidin-1-yl)propyl)carbamoyl)-1-methyl-1H-pyrrol-3-yl)-1-methyl-1H-pyrrole-2-carboxamide]	< 5 µM	< 5 µM	> 100 µM	12%	3%								IC50 (T. vaginalis): < 1000 nM; MIC99 (C. neoformans (F10025)): 5 to 25 µg/mL (≈ 7.72 to 38.6 µM); MIC99 [6]: 5 to 25 µg/mL (≈ 7.72 to 38.6 µM); MIC99 [7]: 5 to 25 µg/mL (≈ 7.72 to 38.6 µM); MIC99 (Candida auris (H.17.157)): > 50 µg/mL; MIC99 [8]: < 5 µg/mL
COc1cccc(/C=C/c2ccc(C(=O)Nc3cc(C(=O)Nc4cc(C(=O)NCCN5CCOCC5)n(C)c4)n(C)c3)cc2)c1 [Ref-1, reference compound]								A (Group A: SI < 3)	A (Group A: SI < 3)	A (Group A: SI < 8)	A (Group A: SI < 4.1)	A (Group A: SI < 12)	C. auris Selectivity Indices, Group (Candida auris (H.17.157)): A (Group A: SI < 0.4)
COc1ccc(/C=C/c2ccc(C(=O)Nc3cc(C(=O)Nc4cc(C(=O)NCCN5CCOCC5)n(C)c4)n(C)c3)cn2)cc1 [Ref-2, reference compound]								A (Group A: SI < 3)	A (Group A: SI < 3)	A (Group A: SI < 8)	A (Group A: SI < 4.1)	A (Group A: SI < 12)	C. auris Selectivity Indices, Group (Candida auris (H.17.157)): A (Group A: SI < 0.4)
Cn1cc(NC(=O)c2cc(NC(=O)c3ccc(/C=C/c4cnc5ccccc5c4)cc3)cn2C)cc1C(=O)NCCN1CCOCC1 [Ref-3, (E)-1-methyl-4-(1-methyl-4-(4-(2-(quinolin-3-yl)vinyl)benzamido)-1H-pyrrole-2-carboxamido)-N-(2-morpholinoethyl)-1H-pyrrole-2-carboxamide, reference compound]								A (Group A: SI < 3)	A (Group A: SI < 3)	A (Group A: SI < 8)	A (Group A: SI < 4.1)	A (Group A: SI < 12)	S. aureus Selectivity Indices, Group ([1]; Amides): A (Group A: SI < 1.4); E. faecalis Selectivity Indices, Group ([2]; Amides): A (Group A: SI < 0.4); T. vaginalis Selectivity Indices, Group (T. vaginalis; Amides): A (Group A: SI < 0.25); C. auris Selectivity Indices, Group (Candida auris (H.17.157)): A (Group A: SI < 0.4)
COc1cccc(/C=C/c2ccc(C(=O)Nc3cc(C(=O)Nc4cc(C(=O)NCCC(=N)N)n(C)c4)n(C)c3)cc2)c1 [Ref-5, reference compound]								A (Group A: SI < 3)	A (Group A: SI < 3)	A (Group A: SI < 8)	A (Group A: SI < 4.1)	A (Group A: SI < 12)	
CCN(CC)CCCC(C)Nc1ccnc2cc(Cl)ccc12 (centres unmarked) [chloroquine diphosphate, reference compound]													IC50 ([9]; Severe acute respiratory syndrome coronavirus 2, Vero C1008, read-out: IC50 SARS-CoV-2 infectious viral foci): 641 nM
